Experiments:
Format in all cases: cell-based, mouse
SVZ cells [1] = test: SVZ self-renewal assay (secondary neurospheres); conditions: primary neurospheres exposed to Hp 1 μM for 6 days, replated without Hp
SVZ cells [2] = test: SVZ neurosphere forming assay (primary neurospheres)
Protocol: Neurosphere forming and self-renewal assays were performed on SVZ cells seeded at clonal density, 2500 cells per well in 24-well cell culture plates in SFM containing 5 ng/ml EGF and 2.5 ng/ml FGF-2 and supplemented or not (control) with 1 μM Hp or 50 ng.ml^−1 hepatocyte growth factor (carrier free recombinant human HGF, R&D Systems, Lille, France). After 6 days, the numbers of primary neurospheres were determined. For self-renewal assay, neurospheres were collected, dissociated as single cells and seeded in SFM containing 5 ng/ml EGF and 2.5 ng/ml FGF-2 in 24 well plates. After 6 days, the number of secondary neurospheres was counted.
Fluorescence images were recorded using an LSM 510 Meta confocal microscope or an Axioskop 2 Plus fluorescence microscope (both from Carl Zeiss). In all experiments, measurements were performed in the border of SVZ neurospheres where migrating cells form a cell monolayer. For the SVZ neurosphere forming and self-renewal assays the experiments were replicated in five independent culture preparations and each experimental condition was assayed in four different coverslips. For the remaining experiments, each condition was assayed in three different coverslips, and except where otherwise specified, the experiments were replicated in three independent culture preparations. Percentages of TUNEL or BrdU immunoreactive cells in SVZ cell cultures were calculated from cell counts in five independent microscopic fields in each coverslip with a x40 objective (approximately 200 cells per field). Software used was Axiovision, release 4.6 (Carl Zeiss). For SCCl experiments, the percentage of oligodendrocytic-like responding cells (with a Thromb/Hist ratio above 1.3) was calculated on the basis of one microscopic field per coverslip, containing approximately 100 cells (magnification, ×40).
Neural stem-like cells are characterized in vitro by both their capacity to give rise to neurospheres and to self-renew when cultured in the presence of mitogens.

SVZ cells [3] = test: Single cell calcium imaging (SCCI) of oligodendrocytic differentiation; conditions: 7 days
Protocol: To investigate the influence of Hp on oligodendrocytic differentiation, SVZ neurospheres were allowed to develop for 7 days Hp (100 nm, 1 μM), in serum free medium devoid of growth factor at 37° C.
To determine the functional differentiation pattern of SVZ cells, we analyzed the variations of intracellular calcium-free levels ([Ca^2+]i) in single cells following stimulation with 50 mM KCl, 100 μM histamine (Sigma-Aldrich, St. Louis, Mo. USA) and 0.1 U/ml thrombin (Sigma-Aldrich) stimulation. KCl depolarization causes an increase in [Ca^2+]i in neurons, whereas stimulation with histamine leads to an increase in [Ca^2+]i in stem/progenitor cells, while thrombin leads to an increase in [Ca^2+]i in oligodendrocytes. SVZ cultures were loaded for 40 minutes with 5 μM Fura—2/AM (Molecular Probes, Carlsbad, Calif., USA), 0.1% fatty acid-free BSA, and 0.02% pluronic acid F-127 (Molecular Probes) in Krebs solution (132 mM NaCl, 4 mM KCl, 1.4 mM MgCl2, 1 mM CaCl2, 6 mM glucose, 10 mM HEPES, pH 7.4), in an incubator with 5% CO2 and 95% atmospheric air at 37° C. After a 10-minute postloading period at room temperature (RT) in the same medium without Fura-2/AM and pluronic acid, to obtain a complete hydrolysis of the probe, the glass coverslip was mounted on an RC-20 chamber in a PH3 platform (Warner Instruments, Hamden, Conn., USA) on the stage of an inverted fluorescence microscope (Axiovert 200, Carl Zeiss). […] The variations of [Ca^2+]i were evaluated by quantifying the ratio of the fluorescence emitted at 510 nm following alternate excitation (750 msec) at 340 and 380 nm, using a Lambda DG4 apparatus (Sutter Instrument, Novato, Calif., USA) and a 510 nm band-pass filter (Carl Zeiss) before fluorescence acquisition with a x40 objective and a CoolSNAP digital camera (Roper Scientific, Trenton, N.J., USA). […] KCl, histamine, and thrombin peaks given by the normalized ratios of fluorescence at 340/380 nm, at the proper time periods, were used to calculate the ratios of the responses to histamine/KCl (Hist/KCl-neuronal-like profile) and to thrombin/histamine (Throm/Hist-oligodendrocytic-like profile).
Fluorescence images were recorded using an LSM 510 Meta confocal microscope or an Axioskop 2 Plus fluorescence microscope (both from Carl Zeiss). […] Percentages of TUNEL or BrdU immunoreactive cells in SVZ cell cultures were calculated from cell counts in five independent microscopic fields in each coverslip with a x40 objective (approximately 200 cells per field). […] For SCCl experiments, the percentage of oligodendrocytic-like responding cells (with a Thromb/Hist ratio above 1.3) was calculated on the basis of one microscopic field per coverslip, containing approximately 100 cells (magnification, ×40). […]

CC(C)C[C@H](NC(=O)[C@H](Cc1ccccc1)NC(=O)[C@H](CCCCN)NC(=O)[C@H](Cc1ccccc1)NC(=O)[C@H](CC(N)=O)NC(=O)[C@@H](NC(=O)[C@@H]1CCCN1)C(C)C)C(=O)N[C@@H](CO)C(=O)N[C@@H](Cc1cnc[nH]1)C(=O)O [Hp, PVNFKFLSH]
number of secondary neurospheres (control 100%) (SVZ cells [1]): 125.5±13.38%
decrease of the number of primary neurospheres (SVZ cells [2]; 1 μm Hp during 6 days): 15%
number of primary neurospheres (control 100%) (SVZ cells [2]; Hp 1 μM, 6 days, SFM with 5 ng/ml EGF and 2.5 ng/ml FGF-2): 85.13±3.86%
cells responding with a Throm/Hist ratio above 1.3 (oligodendrocyte-like responding cells) (SVZ cells [3]; Hp 100 nM, 9 coverslips): 15.84±3.85%
cells responding with a Throm/Hist ratio above 1.3 (oligodendrocyte-like responding cells) (SVZ cells [3]; Hp 1 μM, 12 coverslips): 14.51±4.09%
cells responding with a Throm/Hist ratio above 1.3 (oligodendrocyte-like responding cells) (SVZ cells [3]; Hp treatment (100 nM or 1 μM), rounded): around 15%

Reference: patent US20140296153A1, “Oligodendrocyte Differentiation” (priority 2011, published 2014)
